Values joined by “and” are separate entries in the source; they are usually repeats but may differ in a detail not shown here. Equal entries are not always repeated. Where two headings read alike, the source gives them in different places.
Key:
[1] = test system: skin; settings: cited from earlier work
[2] = biological target: T1, alkaline phosphatase (Bos taurus, UniProt P19111); type: biochemical; parameters: purchased Sigma Aldrich, St. Louis, MO P0114 (original source); P7640 (second source, 'new AP' condition only); settings: for A1-Results R1 / A1-Results R3 / A1-Results AVG: 20 μL into 180 μL, 4 hours RT, PNPP 60 min, 405 nm; for A1-Results R1 / A1-Results R3: 0.5 mL microcentrifuge tubes; for A1-Results AVG: average of R1-R3
T1 sequence (P19111 20-506): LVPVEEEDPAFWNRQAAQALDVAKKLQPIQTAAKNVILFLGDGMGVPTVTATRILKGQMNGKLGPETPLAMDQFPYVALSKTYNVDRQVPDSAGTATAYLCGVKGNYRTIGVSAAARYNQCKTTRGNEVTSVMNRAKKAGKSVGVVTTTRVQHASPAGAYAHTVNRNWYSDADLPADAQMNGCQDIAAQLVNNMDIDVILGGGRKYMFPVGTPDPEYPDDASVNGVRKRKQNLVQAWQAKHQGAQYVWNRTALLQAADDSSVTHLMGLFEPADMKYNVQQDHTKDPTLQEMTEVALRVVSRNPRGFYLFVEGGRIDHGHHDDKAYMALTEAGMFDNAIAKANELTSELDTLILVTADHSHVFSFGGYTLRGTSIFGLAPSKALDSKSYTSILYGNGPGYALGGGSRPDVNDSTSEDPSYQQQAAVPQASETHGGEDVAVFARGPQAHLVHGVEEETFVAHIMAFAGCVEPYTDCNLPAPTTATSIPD

[3] = biological target: T1, alkaline phosphatase
Experimental: Two different dosing concentrations were evaluated, 10 μL of test chemical added to 90 μL of alkaline phosphatase reaction reagent and 50 μL of test chemical added to 50 μL of alkaline phosphatase reaction reagent; all aliquoted in 96-well plates.
• 1. Alkaline phosphatase reaction reagent (fresh, 1:100) • a. Take 4 mL of AP (1:10) stock solution, add to 36 mL PBS. Vortex mix and then invert to mix 10 times • 2. Prepare alkaline phosphatase reaction reagent for every condition • a. 200 μL AP (1:10) in 1.8 mL PBS • b. […] 200 μL AP (1:10) in 1.8 mL Acetone • 3. Prepare 96-well plates for dosing • 4. Prepare 96-well plates for PNPP reading (3 wells for each test chemical) • a. Aliquot with 200 μL PNPP
• 1. Set 1 • a. 10 μL chemical added to 90 μL AP reaction reagent • 2. Set 2 • a. 50 μL chemical added to 50 μL AP reaction reagent • 3. Incubate for 3 hours • a. To the prepared 96-well plate with 200 μL PNPP aliquoted, add 20 μL • b. […] To the prepared 96-well plate with 200 μL PNPP aliquoted, add 20 μL • b.
In our next study, we focused on ethanol and buffered saline (potassium chloride, potassium phosphate monobasic, sodium chloride, sodium phosphate dibasic) as our solvents.
• 1. Alkaline phosphatase reaction reagent • a. 1:100 • i. PBS: Take 400 μL of AP (1:10) stock solution, add to 3.6 mL PBS. Vortex mix and then invert to mix 10 times • ii. […] Vortex mix and then invert to mix 10 times • b. 1:1000 • i. PBS: Take 400 μL of AP (1:100) stock solution, add to 3.6 mL PBS. Vortex mix and then invert to mix 10 times • ii. […] Vortex mix and then invert to mix 10 times • 2. Prepare 0.5 mL microcentrifuge tubes for dosing • a. One set for room temperature, one set for 37° C. • 3. Prepare 96-well plates for PNPP reading (3 wells for each test chemical) • a. Aliquot with 200 μL PNPP
• 1. In each microcentrifuge tube for each condition, add 180 μL of the corresponding AP reaction reagent • 2. Add 20 μL of the test chemical to each microcentrifuge tube • 3. Incubate for 4 hours (one set at room temperature; one set at 37° C.) • 4. To prepared 96-well plates with 200 μL PNPP aliquoted, add 20 μL of each microcentrifuge tube to the corresponding well • 5.

[4] = biological target: T1, alkaline phosphatase; test: Solvent screen, visual colour change in PNPP; settings: 200 μL of the solvent into 2 mL of PNPP; 1-hour
Experimental: The results were not quantified with the spectrophotometer but the color change was visually observed. […] Two different dosing concentrations were evaluated, 10 μL of test chemical added to 90 μL of alkaline phosphatase reaction reagent and 50 μL of test chemical added to 50 μL of alkaline phosphatase reaction reagent; all aliquoted in 96-well plates.

[5] = 4 mL glass vials, 30 μL into 300 μL, 1:100, 4 hours room temperature, 3 mL PNPP 1 hour

Row | Compound | A1-Results R1 ([2]; 1:100) | A1-Results R3 ([2]; 1:100) | A1-Results AVG ([2]; 1:100) | color change visually observed [4] | also measured
1 | CCCCCCCCC=O [Nonyl aldehyde] | 3.393 | 3.050 | 3.296 | – | in vivo GHS ([1]; skin, chemical lists of the protocols): Cat. 2 (Category 2 (irritation; mean score of ≥2.3 and ≤4.0 for erythema/eschar or for oedema in at least 2 of 3 tested animals at 24, 48, and 72 hours or inflammation that persists to the end of 14 days)); OD405 reading (FIG. 7A) [3]: 1.589; OD405 reading (FIG. 7B) [3]: 3.078
2 | CCCCCCCC(=O)O [Octanoic Acid] | 0.741 | 0.860 | 0.797 | – | in vivo GHS ([1]; rabbit, in vivo): Cat. 1B/1C; OD405 readings (FIG. 11B) [2, 5]: 1.427 and 1.415 and 1.416; prediction based on OD405 values (FIG. 6B) ([2]; original alkaline phosphatase 1:1, 18 hours room temperature): incorrectly predicted; OD405 readings (FIG. 6D) ([2]; original alkaline phosphatase 1:100 (100 units), 100 μL into 1 mL, 18 hours room temperature, PNPP 1 hour): 3.462 and 3.491 and 3.333; OD405 readings (FIG. 11D) [3, 5]: 3.283 and 3.408 and 3.220
3 | CC(C)=O [acetone] | – | – | – | brightest yellow intensity | –
4 | C[S+](C)[O-] [dimethyl sulfoxide] | – | – | – | no response (clear) | –
5 | CCO [ethanol] | – | – | – | brightest yellow intensity | –
6 | CO [methanol] | – | – | – | lesser yellow intensity | –
